In patent publication US20170105981A1, “METHODS FOR STABILIZING HYPOXIA INDUCIBLE FACTOR-2 ALPHA AS A METHOD FOR TREATING CANCER” (The Ohio State Innovation Foundation, priority 2011, published 2017):

Legend:
sVEGFR-1 = sVEGFR-1 transcription in bone marrow-derived macrophages (LysMcre control vs HIF-2αflox/flox/LysMcre); assay type: cell-based, mice; details: p=0.036, FIG. 11F
Text: HIF-2α^flox/flox mice (originally developed by Dr. Celeste Simon, University of Pennsylvania) and LysMcre recombinase mice (originally developed by Irmgard Foerster, University of Duesseldorf) (both purchased from The Jackson Laboratory, Bar Harbor, Me.) were crossed to generate mice homozygous for both LysMcre and the floxed HIF-2α allele. LysMcre recombinase mice, which express no floxed alleles, were used as controls. Deletion of HIF-2α in HIF-2α^flox/flox/LysMcre macrophages, but not the LysMcre control macrophages, was confirmed at the transcript level by real-time PCR.
To generate bone marrow-derived macrophages (BDMs), femoral bone marrow was isolated and progenitor cells were plated in RPMI-1640 supplemented with 10% FBS, 1% PSA, 10 μg/mL of polymyxin B, and 20 ng/mL of recombinant murine M-CSF. Cells were cultured for 5 days with the addition of fresh M-CSF every other day. […]
Human monocytes were left untreated or were stimulated with 100 ng/mL GM-CSF at normoxia or at 0.5% O2. […] Data were analyzed according to the comparative threshold method and normalized against the β-actin internal control transcript. Results are semi-quantitative and represent the fold difference in transcript levels in a particular sample as compared with levels in untreated cells from the same donor. […]

[1] = tested on: B16F10 murine melanoma cells; experiment: Murine melanoma tumor model (B16F10 in C57BL/6 mice); assay type: in vivo; details: for tumor growth: FIG. 14A
Description: Mice were injected with 1×10^5 B16F10 murine melanoma cells murine subcutaneously on the left flank. Once tumors become palpable (approximately 5 days), mice were randomly allocated to receive treatment with either: 20% polyethylene glycol (PEG) in 5% […] (vehicle control for the disclosed HIF-2α stabilizer) and PBS (vehicle control for GM-CSF), 20% PEG and GM-CSF (100 ng per mouse in a 50 μL volume), the disclosed HIF-2α stabilizer (17.5 mg/kg in a 100 μL volume) and PBS, or the disclosed HIF-2α stabilizer and GM-CSF (same doses). The PBS and GM-CSF were administered intratumorally, while the 20% PEG and the disclosed HIF-2α stabilizer were administered intraperitoneally. Mice were treated 3 times per week until tumors reached a size of 20 mm in any dimension (approximately 2.5 weeks), at which point mice were euthanized, in accordance with institutional policy. Tumor diameters were measured 3 times per week with calipers, and tumor volumes were calculated as follows: Tumor volume=0.5×[(large diameter)×(small diameter)^2].
6-8-week-old C57BL/6 mice were injected with 1×10^5 B16F10 murine melanoma cells murine subcutaneously on the left flank. Once tumors become palpable (approximately 5 days), mice were randomly allocated to receive treatment with either: 20% PEG-400 in 5% sucrose (vehicle for disclosed HIF-2α stabilizer) and PBS (vehicle for GM-CSF), 20% PEG-400 and GM-CSF (100 ng per mouse in a 50 μL volume), disclosed HIF-2α stabilizer (17.5 mg/kg mouse weight in a 100 μL volume) and PBS, or the disclosed HIF-2α stabilizer and GM-CSF (same concentrations). The disclosed HIF-2α stabilizer (or the vehicle control) was administered intraperitoneally, while GM-CSF (or the vehicle control) was administered intratumorally. Mice were treated […] 3 times per week until tumors reached a size of 20 mm in any dimension (approximately 2.5 weeks), at which point mice were be euthanized, in accordance with institutional policy. Tumor diameters were measured 3 times per week with calipers, and tumor volumes will be calculated as follows: Tumor volume=0.5×[(large diameter)×(small diameter)^2]. For experiments analyzing the effect of neutralizing sVEGFR-1 in combination with disclosed HIF-2α stabilizer treatment, mice were treated intraperitoneally 3×/week with either disclosed HIF-2α stabilizer or vehicle control, and intratumorally with either 4 μg anti-VEGFR-1 neutralizing antibody (R&D Systems) or 4 μg polyclonal goat IgG isotype control (Santa Cruz Biotechnology) in a 50 μL volume. All protocols were approved by the Ohio State University Animal Care and Use Committee, and mice were treated in accordance with institutional guidelines for animal care.
The ANOVA test was used to compare independent measurements between multiple treatment groups. The data was log-transformed to normalize the variance across groups. P-values were adjusted using the Holm's procedure to conserve the type I error at 0.05 due to the multiple comparisons. For tumor growth data, changes in tumor volume over time were assessed via a longitudinal model. Tumor values were log-transformed, and estimated slopes (changes in tumor volume over time) were calculated with 95% confidence intervals. Estimated differences in tumor volume were calculated by a random-effects regression of the longitudinal data. For all analyses, p≦0.05 was considered statistically significant.
6-8-week-old C57BL/6 mice or SCID mice were injected with 1×10^5 B16F10 murine melanoma cells or 1×10^6 A375 human melanoma cells, respectively, subcutaneously on the left flank. […]

VEGF mRNA = VEGF mRNA expression (qPCR) in HIF-1α−/− fibroblasts; assay type: cell-based, murine; details: hypoxic conditions (1% O2), 1, 10 and 100 μM, vs. hypoxia control, FIG. 1B
Description: Total RNA was isolated from tissues and cells by using TRIzol™ Reagent (Invitrogen) and the RNeasy kit (Qiagen), respectively. 1 μg RNA was used for reverse transcription using SuperScript II First-Strand Synthersis System (Invitrogen). cDNA's were amplified in a SYR Green or TaqMan Universal Master Mix (Applied Biosystems). Quantitative PCR (qPCR) was performed on ABI Prism 7700 sequence detection system. PCR conditions are: 10 min at 95° C., 40 cycles of 15 seconds at 95° C. and 1 minute at 60° C. The relative amount of mRNA was calculated after normalization to β-actin.
Cells were cultured in DMEM (#11965-092, Invitrogen) supplemented with 10% fetal bovine serum (Invitrogen), 100 U/mL penicillin and […] streptomycin. For glucose deprivation, DMEM without glucose (#11966-025, Invitrogen) was used.
Mouse embryonic fibroblasts (MEFs) were isolated from E12.5 embryos and immortalized by stable transfection with SV40 large T antigen.

## O=C(O)CNC(=O)c1ncc(-c2cccc(F)c2)cc1O [disclosed HIF-2α stabilizer, {[5-(3-Fluorophenyl)-3-hydroxypyridine-2-carbonyl]amino} acetic acid]
sVEGFR-1
  sVEGFR-1 transcription: induced
[1]; B16F10 melanoma, stabilizer 17 mg/kg I.P., GM-CSF I.T., vs PBS control, FIG. 3
  tumor growth / tumor volume: reduces tumor growth
[1]; B16F10 melanoma-bearing mice, stabilizer alone, p=0.023, FIG. 12B
  increase in median survival (time to a tumor diameter of 20 mm): 3 days
[1]; day 16 of treatment, 3×/week, GM-CSF 100 ng/mouse intratumoral, stabilizer 17.5 mg/kg intraperitoneal, each p<0.001
  average tumor volumes vs vehicle controls: significantly smaller
[1]; mice also treated with anti-sVEGFR-1 neutralizing antibody, p=0.245
  tumor growth: no effect
[1]; mice treated with isotype control antibody, p<0.001
  tumor growth: decreased tumor growth
VEGF mRNA
  VEGF mRNA (relative amount): dramatic reduction
